# Data published in ChEMBL document CHEMBL4765284, “Optimization of 5-substituted thiazolyl ureas and 6-substituted imidazopyridines as potential HIV-1 latency reversing agents” (Eur J Med Chem, 2020).
# Legend:
# [1] = system: Human immunodeficiency virus 1; experiment: Antiviral activity against HIV-1 infected in FlpIn-HEK293 cells assessed as activation of long terminal repeat driven gene expression incubated for 72 hrs by luciferase based cellular assay; type: functional, organism-based; conditions: Human immunodeficiency virus 1, HEK293, 72 h
# [2] = system: Cytomegalovirus; experiment: Antiviral activity against CMV infected in FlpIn-HEK293 cells assessed as click beetle green reporter driven gene expression incubated for 72 hrs by luciferase based cellular assay; type: functional, organism-based; conditions: HEK293, 72 h
# [3] = Aqueous solubility of compound at pH 2 by nephelometry; type: physicochemical
# [4] = Aqueous solubility of compound at pH 6.5 by nephelometry; type: physicochemical
# [5] = Metabolic stability in mouse liver microsomes assessed as half life at 1 uM measured upto 60 mins by LC-MS anlaysis; type: ADME, Microsome
# [6] = Metabolic stability in mouse liver microsomes assessed as intrinsic clearance at 1 uM measured upto 60 mins by LC-MS anlaysis; type: ADME, Microsome; conditions: read-out: CLH
# [7] = system: Human immunodeficiency virus 1; experiment: Antiviral activity against HIV-1 infected in FlpIn-HEK293 cells assessed as maximal activation of long terminal repeat driven gene expression at 0.09 uM incubated for 48 hrs by luciferase based cellular assay relative to control; type: functional
# [8] = system: Human immunodeficiency virus 1; experiment: Antiviral activity against HIV-1 infected in J-Lat 10.6 cells assessed as maximal activation of long terminal repeat driven gene expression incubated for 48 hrs by green fluorescent protein based cellular assay; type: functional, organism-based; conditions: Human immunodeficiency virus 1, J-Lat 10.6, 48 h
# [9] = system: Human immunodeficiency virus 1; experiment: Antiviral activity against HIV-1 infected in J-Lat 10.6 cells assessed as maximal activation of long terminal repeat driven gene expression at 0.06 uM incubated for 48 hrs by green fluorescent protein based cellular assay relative to control; type: functional
# [10] = Cytotoxicity against human HepG2 cells assessed as growth incubation incubated for 48 hrs by cell titer glo assay; type: cell-based
# [11] = Metabolic stability in human liver microsomes assessed as half life at 1 uM measured upto 60 mins by LC-MS anlaysis; type: ADME, Microsome
# [12] = Metabolic stability in human liver microsomes assessed as intrinsic clearance at 1 uM measured upto 60 mins by LC-MS analysis; type: ADME, Microsome; conditions: read-out: CLH
# [13] = system: Human immunodeficiency virus 1; experiment: Antiviral activity against HIV-1 infected in FlpIn-HEK293 cells assessed as maximal activation of long terminal repeat driven gene expression at 0.31 uM incubated for 48 hrs by luciferase based cellular assay relative to control; type: functional
# [14] = system: Human immunodeficiency virus 1; experiment: Antiviral activity against HIV-1 infected in J-Lat 10.6 cells assessed as maximal activation of long terminal repeat driven gene expression at 2 uM incubated for 48 hrs by green fluorescent protein based cellular assay relative to control; type: functional
# [15] = system: Human immunodeficiency virus 1; experiment: Antiviral activity against HIV-1 infected in FlpIn-HEK293 cells assessed as maximal activation of long terminal repeat driven gene expression at 0.63 uM incubated for 48 hrs by luciferase based cellular assay relative to control; type: functional
# [16] = system: Human immunodeficiency virus 1; experiment: Antiviral activity against HIV-1 infected in FlpIn-HEK293 cells assessed as maximal activation of long terminal repeat driven gene expression at 0.13 uM incubated for 48 hrs by luciferase based cellular assay relative to control; type: functional
# [17] = system: Human immunodeficiency virus 1; experiment: Antiviral activity against HIV-1 infected in J-Lat 10.6 cells assessed as maximal activation of long terminal repeat driven gene expression at 0.13 uM incubated for 48 hrs by green fluorescent protein based cellular assay relative to control; type: functional
# [18] = target: Cyclin-dependent kinase 9 (Homo sapiens) (UniProt P50750); experiment: Inhibition of CDK9 (unknown origin) at 0.5 uM
# Cyclin-dependent kinase 9 (Homo sapiens), sequence (P50750 whole entry): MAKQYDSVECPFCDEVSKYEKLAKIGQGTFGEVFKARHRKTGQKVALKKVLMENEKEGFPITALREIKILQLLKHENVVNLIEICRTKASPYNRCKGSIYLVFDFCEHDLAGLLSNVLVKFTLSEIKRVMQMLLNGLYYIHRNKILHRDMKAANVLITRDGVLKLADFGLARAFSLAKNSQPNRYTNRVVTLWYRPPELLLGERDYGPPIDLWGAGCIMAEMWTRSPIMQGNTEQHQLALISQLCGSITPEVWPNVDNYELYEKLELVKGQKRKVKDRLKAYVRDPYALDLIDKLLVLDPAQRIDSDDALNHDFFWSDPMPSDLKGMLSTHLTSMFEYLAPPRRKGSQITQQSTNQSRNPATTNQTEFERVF
# [19] = target: T1, Cyclin-K (Homo sapiens) (UniProt O75909); experiment: Inhibition of cyclin K (unknown origin) at 0.5 uM
# T1 sequence (whole entry): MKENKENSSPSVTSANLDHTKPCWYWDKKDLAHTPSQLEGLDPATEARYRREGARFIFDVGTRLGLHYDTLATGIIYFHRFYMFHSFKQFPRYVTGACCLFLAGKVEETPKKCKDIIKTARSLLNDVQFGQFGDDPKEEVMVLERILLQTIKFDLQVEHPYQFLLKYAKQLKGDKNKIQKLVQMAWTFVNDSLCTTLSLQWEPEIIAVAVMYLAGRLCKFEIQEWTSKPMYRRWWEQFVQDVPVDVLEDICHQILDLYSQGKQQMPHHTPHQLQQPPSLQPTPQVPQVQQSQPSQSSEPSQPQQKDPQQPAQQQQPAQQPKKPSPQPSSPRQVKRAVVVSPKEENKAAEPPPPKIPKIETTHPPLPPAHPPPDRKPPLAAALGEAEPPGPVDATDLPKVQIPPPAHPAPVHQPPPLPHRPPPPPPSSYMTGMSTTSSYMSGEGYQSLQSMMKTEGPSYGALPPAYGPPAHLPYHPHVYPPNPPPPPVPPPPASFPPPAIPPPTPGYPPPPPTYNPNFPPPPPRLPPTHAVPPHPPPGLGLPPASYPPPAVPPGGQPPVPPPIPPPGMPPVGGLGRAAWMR
# [20] = target: Cyclin-T1 (Homo sapiens) (UniProt O60563); experiment: Inhibition of cyclin T1 (unknown origin) at 0.5 uM
# Cyclin-T1 (Homo sapiens), sequence (O60563 whole entry): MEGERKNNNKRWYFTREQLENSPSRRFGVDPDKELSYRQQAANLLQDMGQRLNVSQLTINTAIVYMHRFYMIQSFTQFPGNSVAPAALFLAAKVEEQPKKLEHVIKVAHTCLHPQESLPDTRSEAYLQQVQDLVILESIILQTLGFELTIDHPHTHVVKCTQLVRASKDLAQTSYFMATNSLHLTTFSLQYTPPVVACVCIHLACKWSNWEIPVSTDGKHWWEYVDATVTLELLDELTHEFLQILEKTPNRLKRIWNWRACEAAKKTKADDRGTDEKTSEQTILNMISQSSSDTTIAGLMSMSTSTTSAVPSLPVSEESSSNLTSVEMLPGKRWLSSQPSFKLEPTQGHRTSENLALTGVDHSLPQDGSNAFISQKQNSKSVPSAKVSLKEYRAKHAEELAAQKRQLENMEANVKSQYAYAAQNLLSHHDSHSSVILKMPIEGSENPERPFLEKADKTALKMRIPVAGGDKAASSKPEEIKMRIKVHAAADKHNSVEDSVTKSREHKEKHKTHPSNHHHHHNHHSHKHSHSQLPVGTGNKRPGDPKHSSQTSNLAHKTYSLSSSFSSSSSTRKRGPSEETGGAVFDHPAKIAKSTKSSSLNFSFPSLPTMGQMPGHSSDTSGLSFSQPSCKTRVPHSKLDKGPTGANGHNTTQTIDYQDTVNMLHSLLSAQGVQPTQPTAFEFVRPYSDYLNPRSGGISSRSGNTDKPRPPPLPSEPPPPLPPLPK
# [21] = target: Cyclin-T2 (Homo sapiens) (UniProt O60583); experiment: Inhibition of cyclin T2 (unknown origin) at 0.5 uM
# Cyclin-T2 (Homo sapiens), sequence (O60583 whole entry): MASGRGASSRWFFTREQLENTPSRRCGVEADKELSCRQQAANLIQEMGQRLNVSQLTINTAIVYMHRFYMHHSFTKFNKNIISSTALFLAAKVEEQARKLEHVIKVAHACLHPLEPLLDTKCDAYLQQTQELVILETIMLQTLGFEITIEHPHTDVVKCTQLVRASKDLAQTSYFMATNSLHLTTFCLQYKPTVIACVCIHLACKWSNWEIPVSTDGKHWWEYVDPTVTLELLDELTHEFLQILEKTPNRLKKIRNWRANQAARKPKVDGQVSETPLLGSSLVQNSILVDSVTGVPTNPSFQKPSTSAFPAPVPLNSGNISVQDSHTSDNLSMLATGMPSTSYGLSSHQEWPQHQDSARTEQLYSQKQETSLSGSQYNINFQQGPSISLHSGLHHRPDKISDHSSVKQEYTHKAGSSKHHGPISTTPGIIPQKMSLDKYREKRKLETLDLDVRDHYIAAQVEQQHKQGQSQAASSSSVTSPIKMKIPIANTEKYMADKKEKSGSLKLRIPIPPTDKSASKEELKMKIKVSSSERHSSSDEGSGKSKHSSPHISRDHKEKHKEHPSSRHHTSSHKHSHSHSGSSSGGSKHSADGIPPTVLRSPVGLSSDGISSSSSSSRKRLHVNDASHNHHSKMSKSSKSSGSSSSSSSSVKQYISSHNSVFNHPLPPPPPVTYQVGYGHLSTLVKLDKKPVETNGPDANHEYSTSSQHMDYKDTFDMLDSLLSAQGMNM
# [22] = system: Human immunodeficiency virus 1; experiment: Antiviral activity against HIV-1 infected in FlpIn-HEK293 cells assessed as maximal activation of long terminal repeat driven gene expression at 0.16 uM incubated for 48 hrs by luciferase based cellular assay relative to control; type: functional
# [23] = system: Human immunodeficiency virus 1; experiment: Antiviral activity against HIV-1 infected in J-Lat 10.6 cells assessed as maximal activation of long terminal repeat driven gene expression at 0.25 uM incubated for 48 hrs by green fluorescent protein based cellular assay relative to control; type: functional
# [24] = system: Human immunodeficiency virus 1; experiment: Antiviral activity against HIV-1 infected in FlpIn-HEK293 cells assessed as maximal activation of long terminal repeat driven gene expression at 0.25 uM incubated for 48 hrs by luciferase based cellular assay relative to control; type: functional
# [25] = system: Human immunodeficiency virus 1; experiment: Antiviral activity against HIV-1 infected in J-Lat 10.6 cells assessed as maximal activation of long terminal repeat driven gene expression at 1 uM incubated for 48 hrs by green fluorescent protein based cellular assay relative to control; type: functional
# [26] = system: Human immunodeficiency virus 1; experiment: Antiviral activity against HIV-1 infected in FlpIn-HEK293 cells assessed as maximal activation of long terminal repeat driven gene expression at 5 uM incubated for 48 hrs by luciferase based cellular assay relative to control; type: functional
# [27] = system: Human immunodeficiency virus 1; experiment: Antiviral activity against HIV-1 infected in FlpIn-HEK293 cells assessed as maximal activation of long terminal repeat driven gene expression at 1.3 uM incubated for 48 hrs by luciferase based cellular assay relative to control; type: functional
# [28] = system: Human immunodeficiency virus 1; experiment: Antiviral activity against HIV-1 infected in J-Lat 10.6 cells assessed as maximal activation of long terminal repeat driven gene expression at 20 uM incubated for 48 hrs by green fluorescent protein based cellular assay relative to control; type: functional
SMILES,EC50 [1] [nM],EC50 [2] [nM],solubility kinetic [3] [µM],solubility kinetic [4] [µM],half-life at 1 µM [5] [min],microsomal CLint at 1 µM [6] [µL/min/mg],EC50 [8] [nM],CC50 at 48 h [10] [nM],also measured
Clc1cnc2[nH]c(N3CCN(c4cnc(Cl)c(Cl)c4)CC3)nc2c1,80,27000,25,1.6,13,132,24000,40,%max [7]: 57%; %max [9]: 28%
Cc1cnc2[nH]c(N3CCN(c4ccc(C)c(Cl)c4)CC3)nc2c1,3200,2800,50,< 1.6,8,224,–,–,half-life at 1 µM [11]: 15 min; microsomal CLint at 1 µM [12]: 115 µL/min/mg
Cc1ccc(N2CCN(C(=O)Nc3ncc(Cl)s3)CC2=O)cc1Cl,640,13000,1.6,1.6,60,29,2700,42000,%max [13]: 47%; %max [14]: 38%
Cc1cc(NC2CCN(C(=O)Nc3ncc(Cl)s3)C2)ccc1Cl (stereo not drawn),790,1800,6.3,1.6,11,151,3000,680,%max [15]: 39%; %max [14]: 20%
O=C(Nc1ncc(Cl)s1)N1CCN(c2cnc(Cl)c(Cl)c2)CC1,80,70,< 1.6,< 1.6,55,32,290,40,half-life at 1 µM [11]: 70 min; microsomal CLint at 1 µM [12]: 25 µL/min/mg; %max [16]: 65%; %max [17]: 26%; inhibition [18]: 60%; inhibition [19]: 60%; inhibition [20]: 60%; inhibition [21]: 60%
N#Cc1cnc(NC(=O)N2CCN(c3cnc(Cl)c(Cl)c3)CC2)s1,390,150,< 1.6,< 1.6,80,22,1100,120,%max [22]: 25%; %max [23]: 28%
Cc1ccc(NC2CN(C(=O)Nc3ncc(Cl)s3)C2)cc1Cl,230,1700,1.6,1.6,36,49,1500,330,%max [24]: 63%; %max [25]: 31%
Clc1cnc2[nH]c(CCCOc3cnc(Cl)c(Cl)c3)nc2c1,6400,2400,12.5,1.6,14,122,> 4000,1900,%max [16]: 26%; %max [14]: 11%
N#Cc1cccc(N2CCN(C(=O)Nc3ncc(Cl)s3)CC2)c1,610,500,< 1.6,< 1.6,46,38,480,50,%max [13]: 22%; %max [23]: 28%
Cc1ccc(N2CCN(C(=O)Nc3ncc(Cl)s3)CC2)cc1Cl,240,670,< 1.6,< 1.6,33,53,1700,250,%max [24]: 53%; %max [25]: 23%; inhibition [18]: 40%; inhibition [19]: 40%; inhibition [20]: 40%; inhibition [21]: 40%
N#Cc1cnc(NC(=O)N2CCN(c3ccc(Cl)c(Cl)c3)CC2)s1,350,4400,< 1.6,< 1.6,117,15,1600,410,half-life at 1 µM [11]: 151 min; microsomal CLint at 1 µM [12]: 11 µL/min/mg; %max [26]: 87%; %max [25]: 30%
Cc1cc(OCCCC(=O)Nc2ncc(Cl)s2)ccc1Cl,–,–,–,–,–,–,29000,–,%max [27]: 39%; %max [28]: 15%
